# Reference: US6620403B2, “In vivo chemosensitivity screen for human tumors” (priority 2000, dated 2003)
# Where “and” joins values, the source holds several entries; their conditions need not be identical. Equal values may be shown once.
# Assays:
# [1] = system: human NSCLC heterotransplants; experiment: Paclitaxel treatment and tumor response of human NSCLC heterotransplants grown subcutaneously in nude mice; format: in vivo
# NSCLC = conditions: single agent, cited from earlier work
# [2] = system: human NSCLC heterotransplants; experiment: Paclitaxel treatment and tumor response of human NSCLC heterotransplants grown subcutaneously in nude mice; format: in vivo; remark: listed apart in the source
# Method: The in vivo sensitivity to paclitaxel was studied in 34 successfully grown heterotransplants. The paclitaxel was intravenously administered to each mouse at a dosage rate of 60 mg/kg every 3 weeks. Treatment was initiated when the tumors reached a size of about 5 mm in diameter and strict standard clinical criteria (>50% tumor shrinkage) were used to define the tumor response. The heterotransplants were morphologically very similar to the original tumors. The response rate to paclitaxel was 21% (95% Cl 9-38%) which is equivalent to that reported in Phase II studies in patients with advanced NSCLC treated with paclitaxel alone. Tumor heterotransplants are thus proposed as relevant models to evaluate new potential anti-tumor agents for treatment of different cancers and to predict clinical response in individual patients. It is noted that the type of tumor utilized for evaluating chemosensitivity to anti-tumor agents comprises a range of cancers including, but not limited to, colon, head and neck, brain, melanoma, sarcoma, breast, ovarian, prostate, kidney and stomach cancers.
# The fresh tumor samples were cut into 2-3 mm^3 pieces in sterile saline. Three or four pieces of non-necrotic tissue were injected subcutaneously into the lower back and anterior chest of 6 to 8 week old female Nu/Nu mice using a biomedical stainless steel implant needle and maintained under standardized conventional conditions. Animals transplanted with NSCLC tumors were checked for tumor growth over a 36 week period. Tumor formation measuring at least 5 mm in diameter was considered a positive take. Tumor formation was confirmed histologically in all cases. Temporary growth was defined as tumor formation followed by spontaneous regression before reaching a diameter of 5 mm. All other incidences were considered no growth.
# The therapeutic experiments were designed as a standard Phase II clinical study with a target response rate of 20%, the only difference being that the tumor response was assessed as the average of two animals rather than in a single subject as in the case of a human Phase II trial.
# The tumor grown after implantation from human to mouse was resected and cut into pieces following the same procedure used for the original tumor sample as previously described above, and transplanted subcutaneously into several animals. Tumors from the first mouse to mouse passage were allowed to grow until reaching 5 mm in diameter, at which time the animals were split into two groups: 1) control group—no treatment; and 2) treated group. The treated group was administered 60 mg/kg paclitaxel intravenously as a bolus in the tail vein. Tumor measurements were performed twice a week and the tumor volume was calculated using the formula, a×b^2/2 (a=longest diameter and b=shortest diameter). Partial tumor response was defined as an average reduction in the tumor volume of at least 50% in the animals of the treated group compared to the tumor volume measured in animals of the control group. Complete tumor response was defined as complete disappearance of the palpable tumor in both animals of the […].
# [3] = First mouse to mouse passage, after second dose (day 21), 16 heterotransplants, number of responses (%)
compound,measurement,setting,value
CC(=O)O[C@H]1C(=O)[C@@]2(C)[C@H]([C@H](OC(=O)c3ccccc3)[C@]3(O)C[C@H](OC(=O)[C@H](O)[C@@H](NC(=O)c4ccccc4)c4ccccc4)C(C)=C1C3(C)C)[C@]1(OC(C)=O)CO[C@@H]1C[C@@H]2O [paclitaxel],response rate,"[1]; 21 heterotransplants, second mouse to mouse passage, 95% CI 11%-52%",29%
same,Tumor Response/(%) Partial,"[1]; Second passage, 21 heterotransplants tested on both first and second mouse to mouse passages, number of responses (%)",6 (29%)
same,response rate in the individual Phase II studies,"NSCLC; each of four Phase II studies, previously untreated NSCLC patients",10% and 21% and 24% and 38%
same,reported overall response rate,"NSCLC; four Phase II studies, total of 160 previously untreated NSCLC patients",24%
same,non-responders to one dose achieving a partial response after the second dose,[2]; 12 heterotransplants that did not respond with one dose,None
same,partial responses after one dose,"[2]; 16 heterotransplants given two doses, 4/16, 95% CI 7%-52%",25%
same,partial responses converted into complete response after two doses,"[2]; 16 heterotransplants, second dose on day 21, number out of 4 partial responses",Three
same,effect of second dose on overall response rate,"[2]; 16 heterotransplants, second dose on day 21 versus single dose",did not change the overall response rate
same,response rate,"[2]; 21 heterotransplants, first mouse to mouse passage, 95% CI 8%-47%",24%
same,overall response rate,"[2]; 34 heterotransplants, first mouse to mouse passage, one single dose 60 mg/kg i.v., 95% CI 9-38%",21%
same,Tumor Response/(%) Complete,"[2]; Adenocarcinoma, first mouse to mouse passage, 11 heterotransplants, single dose 60 mg/kg i.v.",0
same,Tumor Response/(%) Partial,"[2]; Adenocarcinoma, first mouse to mouse passage, 11 heterotransplants, single dose 60 mg/kg i.v., number of responses (%)",1 (9%)
same,Tumor Response/(%) Complete,"[2]; First mouse to mouse passage, after first dose, 16 heterotransplants",0
same,Tumor Response/(%) Partial,"[2]; First mouse to mouse passage, after first dose, 16 heterotransplants, number of responses (%)",4 (24%)
same,Tumor Response/(%) Complete,[2]; [3],3 (18%)
same,Tumor Response/(%) Partial,[2]; [3],1 (6%)
same,Tumor Response/(%) Complete,"[2]; First passage, 21 heterotransplants tested on both first and second mouse to mouse passages",0
same,Tumor Response/(%) Partial,"[2]; First passage, 21 heterotransplants tested on both first and second mouse to mouse passages, number of responses (%)",5 (24%)
same,Tumor Response/(%) Partial,"[2]; Neuroendocrine carcinoma, first mouse to mouse passage, 1 heterotransplant, single dose 60 mg/kg i.v., number of responses",1
same,Tumor Response/(%) Complete,"[2]; Second passage, 21 heterotransplants tested on both first and second mouse to mouse passages",0
same,Tumor Response/(%) Complete,"[2]; Squamous carcinoma, first mouse to mouse passage, 20 heterotransplants, single dose 60 mg/kg i.v.",0
same,Tumor Response/(%) Partial,"[2]; Squamous carcinoma, first mouse to mouse passage, 20 heterotransplants, single dose 60 mg/kg i.v., number of responses (%)",4 (20%)
same,Tumor Response/(%) Complete,"[2]; TOTAL, first mouse to mouse passage, 34 heterotransplants, single dose 60 mg/kg i.v., number of responses (%)",0 (0%)
same,Tumor Response/(%) Partial,"[2]; TOTAL, first mouse to mouse passage, 34 heterotransplants, single dose 60 mg/kg i.v., number of responses (%), 60 mg/kg",7
same,Tumor Response/(%) Partial,"[2]; TOTAL, first mouse to mouse passage, 34 heterotransplants, single dose 60 mg/kg i.v., number of responses (%), listed as Paclitaxel, 60 mg/kg",7 (21%)
same,Tumor Response/(%) Partial,"[2]; Undifferentiated carcinoma, first mouse to mouse passage, 2 heterotransplants, single dose 60 mg/kg i.v., number of responses",1
